# “Also recorded” adds a separate entry of the source. Read-outs that look alike come from different tables or passages of the source.
# Legend:
# [1] = H&E staining of normal brain from PDX mice treated with RT+13i; assay type: in vivo; details: H&E of tumor-adjacent normal cortex, hippocampus and cerebellum
# Description: (§1) (A). Treatment schedule. (B). […]. (C). Kaplan-Meyer survival benefit analysis. (D) H&E stainings of normal brain from PDX mice treated with RT+13i. *p<0.05.
# (§2) . Toxicity to normal brain structures was not observed, as indicated by H&E stainings of tumor-adjacent normal cortex, hippocampus and cerebellum (FIG. 12E).
# [2] = tested on: HGG PDX; test: adult HGG PDX model treated with 13i and RT; assay type: in vivo, mice; details: for enhancement of RT anti-tumor effect: i.p. administration, RT 2 Gy x 5
# Description: as §1, §2
# [3] = molecular target: T1, recombinant wt-IDH2 (Homo sapiens, UniProt P48735); test: NADPH production by recombinant wt-IDH2; assay type: biochemical; details: FIG. 6
# T1 sequence (P48735 40-452): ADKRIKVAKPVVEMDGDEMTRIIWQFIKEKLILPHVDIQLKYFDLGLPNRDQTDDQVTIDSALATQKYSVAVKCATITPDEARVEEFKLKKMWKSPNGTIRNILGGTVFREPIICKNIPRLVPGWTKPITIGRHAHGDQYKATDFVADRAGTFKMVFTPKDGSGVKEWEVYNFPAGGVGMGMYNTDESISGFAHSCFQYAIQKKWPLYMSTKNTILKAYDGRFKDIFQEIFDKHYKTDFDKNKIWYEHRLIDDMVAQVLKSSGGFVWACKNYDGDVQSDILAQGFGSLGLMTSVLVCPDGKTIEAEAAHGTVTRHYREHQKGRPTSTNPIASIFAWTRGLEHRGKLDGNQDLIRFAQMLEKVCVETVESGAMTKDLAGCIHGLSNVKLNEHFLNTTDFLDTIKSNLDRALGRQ
# Description: FIG. 6. wt-IDH1i-13 is a selective covalent wt-IDH1 inhibitor.
# (§3) The compound 13i was developed using a high-throughput screen of a proprietary library, which encompasses 750,000 compounds. During the screen, the investigators identified a hit series, centered around compound wt-IDH1i-1, which contained a large cluster of α,β-unsaturated enones^9. As indicated by the wt-IDH1: wt-IDH1i-1 crystal structure, wt-IDH1-1i bound to a fully closed wt-IDH1 enzyme and competed with NADPH for access to the wt-IDH1 active site via formation of a covalent adduct and the […] trapping of H315 located within the NAPDH binding site^9. […] Blastp searches identified wt-IDH2 as the only NADPH-dependent enzyme that contained an NADPH binding site with significant similarity to the NADPH binding pocket found in wt-IDH1. […] Of note, while H315 and D375 are conserved between wt-IDH1 and wt-IDH2, other important amino acids, including those adjacent to D375 that form a lipophilic groove (K374/L383/A378) required for 13i binding are different, and are likely to mediate compound selectivity.
# [4] = see Chung et al.; cited from earlier work
# [5] = tested on: HGG glioma cells; test: SYTOX green staining of glioma cells (plasma membrane rupture, ferroptosis); assay type: cell-based; details: for ferroptosis / plasma membrane rupture (SYTOX green positivity): compared to vehicle control, FIG. 11; for rescue of 13i treatment effect by co-treatment: co-treatment with 13i, SYTOX green, FIG. 11A-C
# [6] = molecular target: T2, wt-IDH1 (Homo sapiens, UniProt O75874); test: cellular wt-IDH1 inhibition; assay type: cell-based; parameters: endogenous in cells
# Description: (§4) A therapeutic strategy for the pharmacological inhibition of wt-IDH1 has been devised.
# Target sequence in this assay (O75874 2-414 limits assumed): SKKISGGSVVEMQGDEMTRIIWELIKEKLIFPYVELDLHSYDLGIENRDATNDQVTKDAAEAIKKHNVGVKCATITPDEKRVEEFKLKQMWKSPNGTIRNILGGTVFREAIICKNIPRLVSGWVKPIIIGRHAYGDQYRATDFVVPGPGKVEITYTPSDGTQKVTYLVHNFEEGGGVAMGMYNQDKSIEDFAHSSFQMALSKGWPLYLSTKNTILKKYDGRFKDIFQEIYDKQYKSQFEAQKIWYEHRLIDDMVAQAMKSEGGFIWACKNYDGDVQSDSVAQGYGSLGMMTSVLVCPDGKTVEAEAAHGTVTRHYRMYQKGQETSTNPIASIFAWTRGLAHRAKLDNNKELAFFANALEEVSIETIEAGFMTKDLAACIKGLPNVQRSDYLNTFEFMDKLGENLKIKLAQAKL
# [7] = molecular target: T2, wt-IDH1; test: cell-free wt-IDH1 enzyme inhibition; assay type: biochemical; details: read-out: EC50, blocks wt-IDH1
# Description: as §4, §3
# Target sequence in this assay (O75874 whole entry): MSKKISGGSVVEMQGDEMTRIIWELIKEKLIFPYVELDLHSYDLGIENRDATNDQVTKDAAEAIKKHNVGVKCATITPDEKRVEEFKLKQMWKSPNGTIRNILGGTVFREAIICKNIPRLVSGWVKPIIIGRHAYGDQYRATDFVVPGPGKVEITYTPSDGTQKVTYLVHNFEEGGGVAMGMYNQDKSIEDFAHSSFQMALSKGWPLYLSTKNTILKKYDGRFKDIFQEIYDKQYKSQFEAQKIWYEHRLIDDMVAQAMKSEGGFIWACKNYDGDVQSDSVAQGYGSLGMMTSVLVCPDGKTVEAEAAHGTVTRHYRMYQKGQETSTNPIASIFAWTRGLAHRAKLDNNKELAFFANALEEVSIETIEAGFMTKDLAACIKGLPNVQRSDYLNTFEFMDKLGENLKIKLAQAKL
# [8] = tested on: patient-derived HGG cells; test: growth and cell death in patient-derived HGG cells; assay type: cell-based
# Description: (§5) As these mt-IDH1-specific inhibitors recognize an allosteric site within the enzyme dimerization domain, many of these compounds show ‘off-target’ effect against wt-IDH1, as elucidated in cell-free enzyme repression assays.
# [9] = in vivo effects of mt-IDH1 inhibitors in HGG
# Description: as §5
# [10] = tested on: U87MG cells; test: clonogenic growth assay, RT enhancement upon wt-IDH1 knockdown; assay type: cell-based; details: incubation with antioxidant precursor, FIG. 5A
# Method: FIG. 5. wt-IDH1 inactivation enhances RT anti-tumor effect (A). RT enhancement ratio, as assessed via clonogenic growth assay in U87MG cells, upon genetic wt-IDH1inactivation, in the presence or absence of the ROS scavenger N-acetyl […] (NAC). (B). wt-IDH1 in doxy-treated xenogafts. (C). Tumor volume in mice subcutaneously implanted with U87MG cells carrying a doxy-inducible shIDH1 were treated with doxy and irradiated with a total of 14 Gy administered in 7 fractions of 2 Gy, and tumor volumes were measured. *p<0.05. (D.) Kaplan-Meyer estimates for tumor tripling, *p<0.005 vs. control; **p<0.001 vs. control, RT and doxy. […] Knockdown of wt-IDH1 decreased HGG cell line NADPH concentrations by 50-60%, and similarly depleted numerous NADPH-dependent metabolites, including the antioxidant glutathione (GSH). […] To determine whether combining RT and wt-IDH1 knockdown had beneficial anti-HGG effects in vivo, we established flank xenografts carrying a doxycycline (doxy)-inducible shRNA directed against wt-IDH1. A flank model was used due to the variable CNS penetrance of doxy. Immunoblotting confirmed that administration of doxy had the intended effects on wt-IDH1 expression in both inducible shIDH1 and shCo xenografts (FIG. 5B).
# [11] = molecular target: T2, wt-IDH1; details: covalent engagement with the NADPH pocket; from the screen of Jakob et al.; read-out: cell-free EC50; cited from earlier work
# Target sequence in this assay (O75874 whole entry): as above
structure (smiles),measurement,setting,value
"C[C@@H]1C(=O)C(C#N)=C[C@]2(c3ccccc3)c3nc(Nc4ccccc4)ncc3CC[C@@H]12 [13i, (6aS,7S,10aR)-2-anilino-7-methyl-8-oxo-10a-phenyl-5,6,6a,7-tetrahydrobenzo[h] quinazoline-9-carbonitrile]",toxicity to normal brain structures,[1],not observed
same,tumor volume / progression (bioluminescence),"[2]; i.p. 10 mg/kg M-F, in combination with RT 2 Gy x 5, 10 mg/kg",highly reduced tumor volume; also recorded: reduces the progression
same,survival,"[2]; i.p. 10 mg/kg M-F, in combination with RT 2 Gy x 5, versus vehicle, 10 mg/kg",increased survival; also recorded: extends the survival
same,enhancement of RT anti-tumor effect,[2],enhancement of RT anti-tumor effect
same,enhancement of RT anti-tumor effect,[2]; listed as wt-DIH1i-13,enhances RT anti-tumor effect in vivo
same,fold higher EC50 against recombinant wt-IDH2 compared to wt-IDH1,[3],100 fold
same,brain penetrance,[4],brain-penetrant
same,ferroptosis / plasma membrane rupture (SYTOX green positivity),[5],induced plasma membrane rupture; also recorded: promotes ferroptosis
same,ferroptosis / plasma membrane rupture (SYTOX green positivity),[5]; listed as wt-DIH1i-13,promotes ferroptosis
same,IC50,[6],800 to 1700 nM
same,EC50,[7],14 nM
COc1c(C)cc(NC(=O)c2nn(Cc3ccc(F)cc3)c3c2CN(C(=O)c2ccc[nH]2)C[C@]3(C)C(N)=O)cc1C [GSK864],drug concentrations sufficient to impact growth and cell death,[8],in the high micromolar range
same,in vivo effects,[9],moderate
"CC(=O)N[C@@H](CS)C(=O)O [NAC, N-acetyl cysteine, reference compound]",reversal of radiosensitization conferred by wt-IDH1 knockdown,[10],nearly completely reversed
same,rescue of 13i treatment effect by co-treatment,[5],rescued 13i treatment effect
"CCOC(=O)c1ccc(NC2CCCCC2)c(N)c1 [ferrostatin, reference compound]",rescue of 13i treatment effect by co-treatment,[5],rescued 13i treatment effect
"C[C@@H]1C(=O)C(C#N)=C[C@]2(C)c3nc(Nc4ccccc4)ncc3CC[C@@H]12 [wt-IDH1i-1, (6aS,7S,10aR)-2-anilino-7,10a-dimethyl-8-oxo-5,6,6a,7-tetrahydrobenzo[h] quinazoline-9-carbonitrile]",EC50,[11],49 nM

# Source: patent US20250025465A1, “WT-IDH1 INHIBITION USING A COVALENT AND BRAIN-PENETRANT SMALL MOLECULAR INHIBITOR FOR FERROPTOSIS INDUCTION IN HIGH-GRADE GLIOMA” (Northwestern University, priority 2021, published 2025)
